Source: ChEMBL document CHEMBL1201862, “PubChem BioAssay data set” (2004)
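Where inhibition never reached the appropriate level, the endpoint shown equals the highest concentration tested. Otherwise, values were interpolated linearly from a five-concentration, 48-hour dose response in 96-well plates. GI50: concentration for 50% inhibition of growth.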 Activity calls are given as the source filed them. Cut-off read from the data, not from the text of the source: active = GI50 up to about 1.1 µM and inactive = higher.

Key:
Assay in all cases: DTP human tumour cell line panel, 48 h
MDA-N = system: MDA-N
UO-31 = system: UO-31
SF-268 = system: SF-268
HCC 2998 = system: HCC 2998
SR = system: SR
SW-620 = system: SW-620
SK-MEL-28 = system: SK-MEL-28
OVCAR-8 = system: OVCAR-8
M14 = system: M14
ACHN = system: ACHN
RPMI-8226 = system: RPMI-8226
786-0 = system: 786-0
NCI-H460 = system: NCI-H460
NCI-H522 = system: NCI-H522
CCRF-CEM = system: CCRF-CEM
MDA-MB-435 = system: MDA-MB-435
T47D = system: T47D
Hs-578T = system: Hs-578T
DU-145 = system: DU-145
UACC-62 = system: UACC-62
KM12 = system: KM12
UACC-257 = system: UACC-257
LOX IMVI = system: LOX IMVI
IGROV-1 = system: IGROV-1
OVCAR-3 = system: OVCAR-3
SNB-75 = system: SNB-75
A549 = system: A549
SF-295 = system: SF-295
SK-MEL-2 = system: SK-MEL-2
NCI/ADR-RES = system: NCI/ADR-RES
SK-MEL-5 = system: SK-MEL-5
EKVX = system: EKVX
HCT-116 = system: HCT-116
SN12C = system: SN12C
TK-10 = system: TK-10
HCT-15 = system: HCT-15
HT-29 = system: HT-29
PC-3 = system: PC-3
COLO 205 = system: COLO 205
SNB-19 = system: SNB-19
OVCAR-5 = system: OVCAR-5
HOP-62 = system: HOP-62
CAKI-1 = system: CAKI-1
NCI-H23 = system: NCI-H23
K562 = system: K562
SF-539 = system: SF-539
MCF7 = system: MCF7
MOLT-4 = system: MOLT-4
OVCAR-4 = system: OVCAR-4
U-251 = system: U-251
HL-60 = system: HL-60
NCI-H226 = system: NCI-H226
RXF 393 = system: RXF 393
Malme-3M = system: Malme-3M
HOP-92 = system: HOP-92
SK-OV-3 = system: SK-OV-3

For `CC(=O)OC[C@@]12CC[C@H]3C(C)(C)CCC[C@]3(C)[C@H]1C[C@@H](C1=CC(=O)O[C@H]1O)O2`, the GI50 (MDA-N) was 2.24 µM (inactive), the GI50 (UO-31) was 2.1 µM (inactive) and the GI50 (SF-268) was 10.4 µM (inactive). For the same molecule, the GI50 (HCC 2998) was 1.61 µM (inactive), the GI50 (SR) was 0.625 µM (active) and the GI50 (SW-620) was 4.81 µM (inactive). The GI50 (SK-MEL-28) was 1.77 µM (inactive), the GI50 (OVCAR-8) was 3.18 µM (inactive) and the GI50 (M14) was 2.45 µM (inactive). For the same molecule, the GI50 (ACHN) was 2.54 µM (inactive), the GI50 (RPMI-8226) was 2.15 µM (inactive) and the GI50 (786-0) was 1.8 µM (inactive). For the same molecule, the GI50 (NCI-H460) was 8.69 µM (inactive), the GI50 (NCI-H522) was 1.62 µM (inactive) and the GI50 (CCRF-CEM) was 1.24 µM (inactive). The GI50 (MDA-MB-435) was 2.13 µM (inactive), the GI50 (T47D) was 2.59 µM (inactive) and the GI50 (Hs-578T) was 4.9 µM (inactive). The GI50 (DU-145) was 7.29 µM (inactive), the GI50 (UACC-62) was 1.94 µM (inactive) and the GI50 (KM12) was 6.75 µM (inactive). For the same molecule, the GI50 (UACC-257) was 2.12 µM (inactive), the GI50 (LOX IMVI) was 1.34 µM (inactive) and the GI50 (IGROV-1) was 2.55 µM (inactive). The GI50 (OVCAR-3) was 2.1 µM (inactive), the GI50 (SNB-75) was 3.74 µM (inactive) and the GI50 (A549) was 6.97 µM (inactive). The GI50 (SF-295) was 8.67 µM (inactive), the GI50 (SK-MEL-2) was 2.15 µM (inactive) and the GI50 (NCI/ADR-RES) was 4.5 µM (inactive). For the same molecule, the GI50 (SK-MEL-5) was 2.8 µM (inactive), the GI50 (EKVX) was 11.7 µM (inactive) and the GI50 (HCT-116) was 2.84 µM (inactive). For the same molecule, the GI50 (SN12C) was 3.55 µM (inactive), the GI50 (TK-10) was 3.94 µM (inactive) and the GI50 (HCT-15) was 2.05 µM. The GI50 (HT-29) was 2.52 µM (inactive), the GI50 (PC-3) was 5.43 µM (inactive) and the GI50 (COLO 205) was 3.81 µM (inactive). The GI50 (SNB-19) was 16.7 µM (inactive), the GI50 (OVCAR-5) was 19.7 µM (inactive) and the GI50 (HOP-62) was 10.4 µM (inactive). For the same molecule, the GI50 (CAKI-1) was 2.64 µM (inactive), the GI50 (NCI-H23) was 2.04 µM (inactive) and the GI50 (K562) was 1.48 µM (inactive). For the same molecule, the GI50 (SF-539) was 2.39 µM (inactive), the GI50 (MCF7) was 1.58 µM (inactive) and the GI50 (MOLT-4) was 1.36 µM (inactive).

For `N=C(N)SCCc1ccccn1`, the GI50 (OVCAR-4) was > 100 µM (inactive), the GI50 (UO-31) was > 100 µM (inactive) and the GI50 (SF-268) was > 100 µM (inactive). For the same molecule, the GI50 (SW-620) was > 100 µM (inactive), the GI50 (SK-MEL-28) was > 100 µM (inactive) and the GI50 (OVCAR-8) was > 100 µM (inactive). For the same molecule, the GI50 (M14) was > 100 µM (inactive), the GI50 (ACHN) was > 100 µM (inactive) and the GI50 (RPMI-8226) was > 100 µM (inactive). The GI50 (U-251) was > 100 µM (inactive), the GI50 (HL-60) was > 100 µM (inactive) and the GI50 (786-0) was > 100 µM (inactive). For the same molecule, the GI50 (NCI-H460) was > 100 µM (inactive), the GI50 (NCI-H522) was > 100 µM (inactive) and the GI50 (CCRF-CEM) was > 100 µM (inactive). The GI50 (T47D) was > 100 µM (inactive), the GI50 (NCI-H226) was > 100 µM (inactive) and the GI50 (UACC-62) was > 100 µM (inactive). The GI50 (KM12) was > 100 µM (inactive), the GI50 (LOX IMVI) was > 100 µM (inactive) and the GI50 (IGROV-1) was > 100 µM (inactive). The GI50 (OVCAR-3) was > 100 µM (inactive), the GI50 (A549) was > 100 µM (inactive) and the GI50 (RXF 393) was > 100 µM (inactive). For the same molecule, the GI50 (SK-MEL-2) was > 100 µM (inactive), the GI50 (SK-MEL-5) was > 100 µM (inactive) and the GI50 (EKVX) was > 100 µM (inactive). The GI50 (HCT-116) was > 100 µM (inactive), the GI50 (SN12C) was > 100 µM (inactive) and the GI50 (Malme-3M) was > 100 µM (inactive). For the same molecule, the GI50 (HCT-15) was > 100 µM, the GI50 (HOP-92) was > 100 µM (inactive) and the GI50 (SK-OV-3) was > 100 µM (inactive). The GI50 (COLO 205) was > 100 µM (inactive), the GI50 (SNB-19) was > 100 µM (inactive) and the GI50 (OVCAR-5) was > 100 µM (inactive). For the same molecule, the GI50 (HOP-62) was > 100 µM (inactive), the GI50 (SF-539) was > 100 µM (inactive) and the GI50 (MOLT-4) was > 100 µM (inactive).
